Converted amounts (≈) assume the structure as drawn.
Key:
[1] = test system: L1210 murine leukemia cells; experiment: evaluation of cytotoxic activity, method (a); assay type: cell-based; conditions: Mus musculus, 48 h at 37° C., 5% CO2, dose causing 50% inhibition of cell growth relative to untreated controls, 0.5% DMSO
Description: As an example, the activity of (E)-9-(2-methoxycarbonyl-ethenyl) camptothecin (internal code FCE 28681) and 9-(2-methoxycarbonyl-ethyl) camptothecin (internal code FCE 29559) were tested according to the following method (a).
The compounds were dissolved in dimethylsulfoxide (DMSO) at a final concentration of 0.5%.
Method (a): evaluation of cytotoxic activity
L1210 murine leukemia cells were grown in vitro as a floated cells in RPMI 1640 medium supplemented with 10% fetal calf serum, 1% L-glutamine 200 mM, 1% of B-mercaptoethanol 1 mM, 100 UI/ml penicillin and 100 μg streptomycin. For assaying the cytotoxic activity, exponentially growing cells were seeded at the concentration of 5×10^4 cells/ml and exposed to graded doses of the compounds under evaluation for 48 h at 37° C. in an humidified atmosphere of 5% CO2. The number of surviving cells was determined with a Coulter Counter; results are expressed as IC50 (dose causing 50% inhibition of cell growth in treated cultures relative to untreated controls after 48 h treatment) in this assay, (E)-9-(2-methoxycarbonyl-ethenyl) camptothecin (internal code FCE 28681) and 9-(2-methoxycarbonyl-ethyl) camptothecin (internal code FCE 29559) were tested and the obtained results are reported on Table 1 below.

[2] = test system: cancer cells; conditions: both in vitro and in vivo; cited from earlier work
[3] = test system: Topoisomerase I; conditions: cited from earlier work
[4] = test system: human albumin; conditions: biologically relevant levels of human albumin; cited from earlier work
[5] = human plasma, 2 hours after drug addition; cited from earlier work

Row | Structure (SMILES) | IC50 [1] | anticancer activity of the lactone versus the carboxylate form [2] | antitumor activity by inhibition of Topoisomerase I [3] | half-life of the biologically active form [4] | percentage of drug converted to camptothecin carboxylate [5]
1 | CC[C@@]1(O)C(=O)OCc2c1cc1n(c2=O)Cc2cc3c(/C=C/C(=O)OC)cccc3nc2-1 [FCE 28681, (E)-9-(2-methoxycarbonyl-ethenyl)camptothecin] | 3.3 ± 1.8 ng/mL (≈ 7.63 nM) |  |  |  | 
2 | CC[C@@]1(O)C(=O)OCc2c1cc1n(c2=O)Cc2cc3ccccc3nc2-1 [camptothecin] |  | significantly greater for the lactone versus the carboxylate form | potent antitumor activity | about 12 min. | greater than 99%
3 | CC[C@@]1(O)C(=O)OCc2c1cc1n(c2=O)Cc2cc3c(CCC(=O)OC)cccc3nc2-1 [FCE 29559, 9-(2-methoxycarbonyl-ethyl)camptothecin] | 2.7 ± 0.5 ng/mL (≈ 6.21 nM) |  |  |  | 
